Test results: patent US12581252B2, “Substituted pyrrolo[3,4-b]pyridines as PI3K-α inhibitors” (Relay Therapeutics, Inc., priority 2020, dated 2026)

Target: H1047R PIK3CA enzyme (Homo sapiens, UniProt P42336, H1047R)
Assay: ADP-Glo Biochemical PIK3CA Kinase Assay
Description: Compounds to be assayed were plated in 16 doses of 1:2 serial dilutions (20 nL volume each well) on a 1536-well plate, and the plate warmed to room temperature. […] To the well was added 1 μL of 200 μM ATP and 20 μM of diC8-PIP2 in Substrate Assay Buffer (50 mM HEPES pH7.4, 50 mM NaCl, 5 mM DTT and 0.03% CHAPS) to start the reaction, and the plate was shaken for 10 seconds, then spun briefly at 1500 rpm, and then incubated for 60 minutes at room temperature. The reaction was stopped by adding 2 μL of ADP-Glo reagent (Promega), and spinning briefly at 1500 rpm, and then incubating for 40 minutes. ADP-Glo Detection reagent (Promega) was added and the plate spun briefly at 1500 rpm, then incubated for 30 minutes.

Chain of H1047R PIK3CA enzyme (P42336 whole entry H1047R): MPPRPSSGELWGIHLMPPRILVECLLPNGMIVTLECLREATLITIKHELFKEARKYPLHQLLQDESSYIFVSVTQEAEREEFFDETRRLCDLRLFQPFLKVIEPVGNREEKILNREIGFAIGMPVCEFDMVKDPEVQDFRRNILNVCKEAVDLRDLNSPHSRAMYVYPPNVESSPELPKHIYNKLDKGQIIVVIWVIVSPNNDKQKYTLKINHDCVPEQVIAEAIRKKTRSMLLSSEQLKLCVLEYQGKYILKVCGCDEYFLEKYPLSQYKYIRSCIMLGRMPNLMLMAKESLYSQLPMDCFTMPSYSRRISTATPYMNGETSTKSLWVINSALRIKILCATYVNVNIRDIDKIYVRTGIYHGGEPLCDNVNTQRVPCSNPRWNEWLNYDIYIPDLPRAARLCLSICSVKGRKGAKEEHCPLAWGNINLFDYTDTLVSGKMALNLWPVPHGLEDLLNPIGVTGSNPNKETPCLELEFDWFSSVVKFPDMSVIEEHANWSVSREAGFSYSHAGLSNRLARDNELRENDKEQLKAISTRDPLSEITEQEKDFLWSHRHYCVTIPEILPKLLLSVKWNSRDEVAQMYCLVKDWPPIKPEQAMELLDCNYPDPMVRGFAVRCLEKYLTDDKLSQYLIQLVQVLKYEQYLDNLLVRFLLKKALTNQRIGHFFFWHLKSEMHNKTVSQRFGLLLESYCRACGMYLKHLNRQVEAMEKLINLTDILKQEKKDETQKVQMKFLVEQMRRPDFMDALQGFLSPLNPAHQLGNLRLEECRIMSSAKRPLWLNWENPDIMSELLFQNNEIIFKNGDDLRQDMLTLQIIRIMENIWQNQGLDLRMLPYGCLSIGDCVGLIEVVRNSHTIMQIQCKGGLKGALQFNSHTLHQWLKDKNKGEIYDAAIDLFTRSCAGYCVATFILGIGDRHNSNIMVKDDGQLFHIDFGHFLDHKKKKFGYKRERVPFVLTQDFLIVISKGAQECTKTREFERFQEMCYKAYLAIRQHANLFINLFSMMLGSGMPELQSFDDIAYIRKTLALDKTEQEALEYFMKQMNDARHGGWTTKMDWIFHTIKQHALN
Chain of H1047R PIK3CA enzyme (P27986 whole entry partner): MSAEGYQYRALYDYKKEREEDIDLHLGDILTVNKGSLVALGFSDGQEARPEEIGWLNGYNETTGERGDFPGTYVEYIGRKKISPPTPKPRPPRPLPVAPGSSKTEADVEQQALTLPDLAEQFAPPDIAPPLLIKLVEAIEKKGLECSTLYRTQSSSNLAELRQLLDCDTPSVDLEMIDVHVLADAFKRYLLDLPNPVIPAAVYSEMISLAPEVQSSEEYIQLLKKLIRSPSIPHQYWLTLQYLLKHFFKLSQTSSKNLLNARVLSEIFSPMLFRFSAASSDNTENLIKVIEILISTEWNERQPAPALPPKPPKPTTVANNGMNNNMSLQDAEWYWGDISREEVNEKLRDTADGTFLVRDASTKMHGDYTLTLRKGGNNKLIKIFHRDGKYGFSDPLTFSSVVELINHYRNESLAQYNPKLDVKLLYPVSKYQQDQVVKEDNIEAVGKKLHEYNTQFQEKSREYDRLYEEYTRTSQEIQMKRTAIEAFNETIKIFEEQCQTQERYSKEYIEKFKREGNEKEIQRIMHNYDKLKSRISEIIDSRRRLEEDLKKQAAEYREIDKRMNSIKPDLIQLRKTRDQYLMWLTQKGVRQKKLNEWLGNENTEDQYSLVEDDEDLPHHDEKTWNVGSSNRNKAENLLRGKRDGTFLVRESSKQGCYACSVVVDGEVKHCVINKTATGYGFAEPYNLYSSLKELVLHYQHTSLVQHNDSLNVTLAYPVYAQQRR

Compound | IC50
O=C(Nc1cc(N2CC3(CNC3)C2)cc2c1C(c1cc(F)ccc1Cl)NC2=O)c1cc(F)cc(C(F)(F)F)c1 (stereo not shown) [Compound I-1299] | 0.1 to 0.5 µM
O=C(Nc1cc(C2=CCOC2)cc2c1C(c1cc(F)ccc1Cl)NC2=O)c1cc(F)cc(C(F)(F)F)c1 (stereo not shown) [Compound I-643] | ≤ 0.1 µM
O=C(Nc1cc(-c2ccc3ncnn3c2)cc2c1[C@H](c1cc(Cl)ccc1Cl)NC2=O)c1cc(F)cc(C(F)(F)F)c1 [Compound I-1053] | 0.5 to 1 µM
NC1CCCCC1C(=O)Nc1cc(-c2ccc3ncnn3c2)cc2c1C(c1cc(F)ccc1Cl)NC2=O (stereo not shown) [Compound I-1982] | 10 to 100 µM
O=C(Nc1cc(CNC2COC2)cc2c1C(c1cc(F)ccc1Cl)NC2=O)c1cc(F)cc(C(F)(F)F)c1 (stereo not shown) [Compound I-352] | ≤ 0.1 µM
CC(=O)c1cc(NC(=O)c2cc(F)cc(C(F)(F)F)c2)c2c(c1)C(=O)NC2c1cc(F)ccc1Cl (stereo not shown) [Compound I-127, N-(6-Acetyl-3-(2-chloro-5-fluorophenyl)-1-oxoisoindolin-4-yl)-3-fluoro-5-(trifluoromethyl)benzamide] | ≤ 0.1 µM
O=C1NC(c2cc(F)ccc2Cl)c2c(Nc3cc4ccccn4n3)cc(-c3ccc4ncnn4c3)cc21 (stereo not shown) [Compound I-1679] | 10 to 100 µM
CS(=O)(=O)N1CCC[C@H](Oc2cc(NC(=O)c3cc(F)cc(C(F)(F)F)c3)c3c(c2)C(=O)NC3c2cc(F)ccc2Cl)C1 (mixture of isomers) [Compound I-1526] | 0.1 to 0.5 µM
CC(=O)N1CCC[C@@H]1COc1cc(NC(=O)c2cc(F)cc(C(F)(F)F)c2)c2c(c1)C(=O)NC2c1cc(F)ccc1Cl (single isomer, unassigned) [Compound I-1467] | ≤ 0.1 µM
O=C(Nc1cc(-c2cnc(-n3ccnc3)nc2)cc2c1C(c1cc(F)ccc1Cl)NC2=O)c1cc(F)cc(C(F)(F)F)c1 (stereo not shown) [Compound I-1482] | ≤ 0.1 µM
Cn1cc(-c2cc(NC(=O)c3cc(F)cc(C(F)(F)F)c3)c3c(c2)C(=O)N[C@H]3c2cc(F)ccc2Cl)c(C#N)n1 [Compound I-1738] | ≤ 0.1 µM
CC(C)(C#N)n1cc(-c2cc(NC(=O)N3C[C@](O)(C(F)(F)F)c4cc(F)ccc43)c3c(c2)C(=O)N[C@@H]3c2cc(F)ccc2Cl)cn1 (single isomer, unassigned) [Compound I-2610] | 1 to 10 µM
O=C(Nc1cc(Br)cc2c1C(c1cc(F)ccc1Cl)NC2=O)c1cc(F)cc(Cl)c1Cl (stereo not shown) [Compound I-816] | 0.1 to 0.5 µM
Nc1nc2cc(-c3cc(NC(=O)c4cc(F)cc(C(F)(F)F)c4)c4c(c3)C(=O)N[C@H]4c3cc(F)ccc3Cl)ccn2n1 [Compound I-1447] | ≤ 0.1 µM
Cn1nccc1C(F)c1cc(NC(=O)c2cc(F)cc(C(F)(F)F)c2)c2c(c1)C(=O)NC2c1cc(F)ccc1Cl (mixture of isomers) [Compound I-1379] | ≤ 0.1 µM
Nc1cc(-c2ccc3ncnn3c2)cc2c1C(c1cc(F)ccc1Cl)NC2=O (stereo not shown) [Compound I-1671] | 10 to 100 µM
O=C1N[C@H](c2cc(F)ccc2Cl)c2c(NC(=O)[C@@H]3CC[C@H](O)C3)cc(Br)cc21 (single isomer, unassigned) [Compound I-2105] | 10 to 100 µM
O=C(Nc1cc(NCC2(O)CC2)cc2c1C(c1cc(F)ccc1Cl)NC2=O)c1cc(F)cc(C(F)(F)F)c1 (stereo not shown) [Compound I-1181] | ≤ 0.1 µM
O=C(Nc1cc(N[C@H]2C[C@H](F)C2)cc2c1C(c1cc(F)ccc1Cl)NC2=O)c1cc(F)cc(C(F)(F)F)c1 (single isomer, unassigned) [Compound I-540] | ≤ 0.1 µM

Compound | IC50
CC(=O)N1CCN(c2cc(-c3ccc4ncnn4c3)cc3c2C(c2cc(F)ccc2Cl)NC3=O)CC1 (stereo not shown) [Compound I-2047] | 10 to 100 µM
O=C(Nc1c(F)ccc2c1C(c1cc(F)ccc1C(F)F)NC2=O)c1cc(F)cc(C(F)(F)F)c1 (stereo not shown) [Compound I-283, N-(3-(2-(Difluoromethyl)-5-fluorophenyl)-5-fluoro-1-oxoisoindolin-4-yl)-3-fluoro-5-(trifluoromethyl)benzamide] | 0.5 to 1 µM
O=C1N[C@H](c2cc(F)ccc2Cl)c2c(NC(=O)N3C[C@](O)(C(F)(F)F)c4cc(F)ccc43)cc(N3CCCC3=O)cc21 (single isomer, unassigned) [Compound I-2666] | 1 to 10 µM
C[C@H](C#N)n1cc(-c2cc(NC(=O)c3cc(F)cc(C(F)(F)F)c3)c3c(c2)C(=O)N[C@@H]3c2cc(F)ccc2Cl)cn1 (single isomer, unassigned) [Compound I-1915] | 1 to 10 µM
COc1ncc(-c2cc(NC(=O)c3cc(F)cc(C(F)(F)F)c3)c3c(c2)C(=O)N[C@@H]3c2cc(F)ccc2Cl)cn1 [Compound I-881] | 1 to 10 µM
O=C(Nc1cc(-c2cn3c(F)cnc3cn2)cc2c1[C@@H](c1cc(F)ccc1Cl)NC2=O)c1cc(F)cc(C(F)(F)F)c1 [Compound I-1877] | 1 to 10 µM
O=C1NC(c2cc(F)ccc2Cl)c2c1cc(-c1ccc3ncnn3c1)cc2N1CCn2ncnc2C1 (stereo not shown) [Compound I-2018] | 10 to 100 µM
O=C(Nc1cc(N2CCS(=O)(=O)CC2)cc2c1C(c1cc(F)ccc1Cl)NC2=O)c1cc(F)cc(C(F)(F)F)c1 (stereo not shown) [Compound I-1248] | ≤ 0.1 µM
O=C(Nc1cc(CS(=O)(=O)Nc2cccnc2)cc2c1C(c1cc(F)ccc1Cl)NC2=O)c1cc(F)cc(C(F)(F)F)c1 (stereo not shown) [Compound I-1402] | ≤ 0.1 µM
O=C(Nc1cc(Br)cc2c1C(c1cc(F)ccc1Cl)NC2=O)Oc1ccc2c(n1)NCC2 (stereo not shown) [Compound I-1206] | 10 to 100 µM
CP(C)(=O)Cc1cc(NC(=O)c2cc(F)cc(C(F)(F)F)c2)c2c(c1)C(=O)NC2c1cc(F)ccc1Cl (stereo not shown) [Compound I-775] | ≤ 0.1 µM
O=C(Nc1cc(-c2ccc3ncnn3c2)cc2c1[C@@H](c1cc(F)ccc1Cl)NC2=O)c1cc(F)cc(OC(F)F)c1 (stereo in doubt) [Compound I-1170] | 10 to 100 µM
NCc1cc(NC(=O)c2cc(F)cc(C(F)(F)F)c2)c2c(c1)C(=O)NC2c1cc(F)ccc1Cl (stereo not shown) [Compound I-126] | ≤ 0.1 µM
O=C1N[C@@H](c2cc(F)ccc2Cl)c2c(NC(=O)N3C[C@H](O)c4cc(F)ccc43)cc(Cl)cc21 (single isomer, unassigned) [Compound I-2400] | 0.1 to 0.5 µM
O=C(Nc1cc(OCC(F)F)cc2c1[C@@H](c1cc(F)ccc1Cl)NC2=O)c1cc(F)cc(C(F)(F)F)c1 [Compound I-2061] | 1 to 10 µM
Nc1cc(NC(=O)c2cc(F)cc(C(F)(F)F)c2)c2c(c1)C(=O)NC2c1cccc(F)c1 (stereo not shown) [Compound I-2320] | 0.5 to 1 µM
O=C(CC1CCCC(O)C1)Nc1cc(-c2ccc3ncnn3c2)cc2c1C(c1cc(F)ccc1Cl)NC2=O (stereo not shown) [Compound I-1960] | 10 to 100 µM
O=C(Nc1cc(-c2ccc3nc(Cl)cn3c2)cc2c1C(c1cc(F)ccc1Cl)NC2=O)c1cc(F)cc(C(F)(F)F)c1 (stereo not shown) [Compound I-1696] | ≤ 0.1 µM
COCC(=O)Nc1cc(NC(=O)c2cc(F)cc(C(F)(F)F)c2)c2c(c1)C(=O)NC2c1cc(F)ccc1Cl (stereo not shown) [Compound I-346] | ≤ 0.1 µM

Continued, values first:

IC50 | Compound
1 to 10 µM | Cc1ccccc1C1NC(=O)c2cccc(NC(=O)C34CCC(C3)c3ccccc34)c21 (stereo not shown) [Compound I-226, N-(1-Oxo-3-(o-tolyl)isoindolin-4-yl)-1,2,3,4-tetrahydro-1,4-methanonaphthalene-1-carboxamide]
10 to 100 µM | O=C1NC(c2ccccc2C(F)(F)F)c2c(NC(=O)c3nsc4ccccc34)cccc21 (stereo not shown) [Compound I-221]
0.1 to 0.5 µM | Cc1ccccc1C1NC(=O)c2cccc(NC(=O)c3csc4c(F)cccc34)c21 (stereo not shown) [Compound I-36]
10 to 100 µM | O=C1N[C@@H](c2cc(F)ccc2Cl)c2c(NC(=O)N3C[C@@H](O)c4cccc(F)c43)cccc21 (single isomer, unassigned) [Compound I-2210]
≤ 0.1 µM | O=C(Nc1cccc2c1C(c1cc(F)ccc1C(F)F)NC2=O)c1cc(F)cc(C(F)(F)F)c1 (stereo not shown) [Compound I-138]
10 to 100 µM | O=C1NCc2c(NC(=O)N3CCCC[C@@H]3Cc3ccccc3)cccc21 (stereo in doubt) [Compound I-989]
0.1 to 0.5 µM | Cc1ccccc1[C@H]1NC(=O)c2cc(C(=O)NCC(F)F)cc(NC(=O)c3nsc4ccccc34)c21 [Compound I-165]
10 to 100 µM | CC(c1nn[nH]c1C(=O)Nc1cccc2c1C(c1cc(F)ccc1Cl)NC2=O)C(F)(F)F (mixture of isomers) [Compound I-2180]
10 to 100 µM | O=C1NC(c2cc(F)ccc2Cl)c2c(NC(=O)N3CCCc4ccccc4C3)cccc21 (stereo not shown) [Compound I-2305]
1 to 10 µM | O=C1N[C@@H](c2cc(F)ccc2Cl)c2c(NC(=O)[C@@H]3CC[C@H](C(F)(F)F)C3)cccc21 [Compound I-2086]
10 to 100 µM | O=C1N[C@H](c2cc(F)ccc2Cl)c2c(NC(=O)[C@H]3CC[C@@H](C(F)(F)F)C3)cccc21 [Compound I-2083]
10 to 100 µM | Cc1ccccc1C1NC(=O)c2cccc(NC(=O)c3c[nH]c(=O)c(F)c3)c21 (stereo not shown) [Compound I-86]
0.1 to 0.5 µM | Cn1cc(-c2cc(NC(=O)c3nsc4ccccc34)c3c(n2)C(=O)N[C@@H]3c2ccccc2Cl)cn1 [Compound I-113]
≤ 0.1 µM | CNC(=O)c1ccc(NC(=O)c2csc3ccccc23)c2c1C(=O)NC2c1ccccc1C (stereo not shown) [Compound I-150]
0.1 to 0.5 µM | O=C1NC(c2ccccc2Cl)c2c(NC(=O)c3csc4ccccc34)ccnc21 (stereo not shown) [Compound I-9]
10 to 100 µM | O=C(CC1CCc2ccccc21)Nc1cc(Br)cc2c1C(c1cc(F)ccc1Cl)NC2=O (stereo not shown) [Compound I-599]
1 to 10 µM | O=C1N[C@H](c2cc(F)ccc2Cl)c2c(NC(=O)N3C[C@H](O)c4cccc(F)c43)cccc21 (single isomer, unassigned) [Compound I-2207]
1 to 10 µM | O=C(Nc1cccc2c1C(c1cc(-c3ccccc3)ccc1Cl)NC2=O)c1cc(F)cc(C(F)(F)F)c1 (stereo not shown) [Compound I-486]
1 to 10 µM | Cc1ccccc1C1NCc2cccc(NC(=O)c3nsc4ccccc34)c21 (stereo not shown) [Compound I-201]
10 to 100 µM | CC(=O)N1CC(C2NC(=O)c3cccc(NC(=O)c4cc(F)cc(C(F)(F)F)c4)c32)C1 (stereo not shown) [Compound I-1909]
